Legend:
MDA-MB-231 [1] = test: cellular ROS, DCF-DA probe, flow cytometry; assay type: cell-based; conditions: 5 μM
Description: (§1) The effect of compound 1 on generation of cellular reactive oxygen species (ROS) was evaluated in MCF7 and MDA-MB-231 cells using a cell permeable ROS probe 2′,7′-dichlorodihydrofluorescein diacetate (DCF-DA; Sigma-Aldrich) that measures several reactive species and becomes fluorescent upon oxidation. Cells treated with compound 1 or compound 2 (5 μM) for the described time interval were stained with the probe and then analyzed via Flow cytometry.

MCF7 [2] = test: cellular ROS, DCF-DA probe, flow cytometry; assay type: cell-based; conditions: 5 μM
Description: as §1

[3] = system: triple negative breast cancer cells (MDA-MB-231) xenograft; test: tumor growth in xenograft model; assay type: in vivo, NOD/SCID gamma mice; conditions: for relative tumor size compared to day 0: 2/week
Description: The effect of compound 1 on tumor growth in vivo was assessed in a xenograft model of triple negative breast cancer cells (MDA-MB-231) injected into NOD/SCID gamma mice. 1×10^6 cells were injected subcutaneously into each mouse. When the tumors were approximately 10 mm^3 in volume, the animals were randomly divided in two groups and injected intra-peritoneally with either compound 1 (2 mg/kg in corn oil) or vehicle (2.5% DMSO in corn oil), twice per week for 21 days. Tumor size was determined by ultrasound using a Vevo 3100 Preclinical Imaging System (VisualSonics).

MCF7 cells = test: real time monitoring of cell confluence via Juli FL; assay type: cell-based; conditions: 30 nM
Description: We also tested the ability of compound 1 to suppress proliferation of cancer cells by an alternative approach via the real time monitoring with a cellular analyser Juli F L. In brief, MCF7 cells were seeded in a 6-well plate the day before to reach approximately 5% confluence on the following day. Next day, the camera of the instrument was focused on a particular field with approximately 5% confluence and cells were continuously monitored, recording the confluence and visual appearance every 30 minutes for 48 hrs. Values were then expressed either as simple confluence at the end of the experiment or as slope of the line representing the confluence during a given period of time (Table 5).

cancer cell lines = test: crystal violet assay, cancer cell lines overall; assay type: cell-based; conditions: as seen in previous tables
Description: Compound 1 and a comparative compound deferasirox (DFX) were tested in their efficacy to kill/suppress proliferation of malignant breast cancer MCF7 cells representing estrogen-dependent type of breast cancer. Briefly, 10.000 cells per well were seeded in a 96-well plate on one day and the next day the tested compounds were added and incubated with the cells for 48 hrs. The cells were then fixed with 4% paraformaldehyde, stained with 0.05% crystal violet, washed with PBS, and solubilized in 1% SDS. The absorbance of the plate at 595 nm was then measured, quantifying the number of viable cells.

MDA-MB-231 [4] = test: mitochondrial ROS, mitoSOX probe, flow cytometry; assay type: cell-based
Description: (§2) The effect of compound 1 on generation of mitochondrial reactive oxygen species (ROS) was evaluated in MCF7 and MDA-MB-231 cells using a specific mitochondrially targeted probe mitoSOX (ThermoFisher Scientific) that measures mostly mitochondrial superoxide and upon binding becomes fluorescent. Cells treated with compound 1 for the described time interval were stained with the probe and then analyzed via Flow cytometry.

MCF7 [5] = test: mitochondrial ROS, mitoSOX probe, flow cytometry; assay type: cell-based
Description: as §2

[6] = 5 min, MDA-MB-231 (0 min = 100)

O=C(NCCCCCCCCCC[P+](c1ccccc1)(c1ccccc1)c1ccccc1)c1ccc(-n2nc(-c3ccccc3O)nc2-c2ccccc2O)cc1 [Compound 1, (10-(4-(3,5-bis(2-hydroxyphenyl)-1H-1,2,4-triazol-1-yl)benzamido)decyl) triphenylphosphonium Chloride]
DCF-DA mean fluorescence (MDA-MB-231 [1]; [6]): 129.9 (17.4) | DCF-DA mean fluorescence (MDA-MB-231 [1]; 10 min, MDA-MB-231): 207.8 (94.2) | DCF-DA mean fluorescence (MDA-MB-231 [1]; 15 min, MDA-MB-231): 258.3 (71.2) | DCF-DA mean fluorescence (MDA-MB-231 [1]; 30 min, MDA-MB-231): 437.5 (105.9) | DCF-DA mean fluorescence (MDA-MB-231 [1]; 60 min, MDA-MB-231): 529.5 (176.1) | DCF-DA mean fluorescence (MCF7 [2]; 5 min, MCF7 (0 min = 100)): 161.3 (29.8) | DCF-DA mean fluorescence (MCF7 [2]; 10 min, MCF7): 172.0 (18.9) | DCF-DA mean fluorescence (MCF7 [2]; 15 min, MCF7): 283.8 (36.6) | DCF-DA mean fluorescence (MCF7 [2]; 30 min, MCF7): 857.2 (299.0) | DCF-DA mean fluorescence (MCF7 [2]; 60 min, MCF7): 1435.0 (452.9) | effect on tumor growth ([3]; 2 mg/kg intra-peritoneally, twice per week for 21 days): significantly slows down the tumor growth | relative tumor size compared to day 0 ([3]; day 4, 2 mg/kg intra-peritoneally): 1.18 (0.3) | relative tumor size compared to day 0 ([3]; day 7, 2 mg/kg intra-peritoneally): 2.04 (0.3) | relative tumor size compared to day 0 ([3]; day 10, 2 mg/kg intra-peritoneally): 3.00 (0.4) | relative tumor size compared to day 0 ([3]; day 14, 2 mg/kg intra-peritoneally): 4.90 (0.8) | relative tumor size compared to day 0 ([3]; day 17, 2 mg/kg intra-peritoneally): 4.44 (0.3) | relative tumor size compared to day 0 ([3]; day 21, 2 mg/kg intra-peritoneally): 5.12 (0.6) | effect on cellular proliferation (MCF7 cells; MCF7): significant inhibition of cellular proliferation | Final % confluence (MCF7 cells; MCF7, 48 hrs): 15.01 (3.4) % | Slope 0-22 h (confluence versus time) (MCF7 cells; MCF7, Juli FL): 0.258 (0.005) | Slope 22-48 h (confluence versus time) (MCF7 cells; MCF7, Juli FL): 0.404 (0.005) | efficacy against cancer cell lines (cancer cell lines): 10 to 100 nM | MitoSOX mean fluorescence (MDA-MB-231 [4]; [6]): 134.7 (36.9) | MitoSOX mean fluorescence (MDA-MB-231 [4]; 10 min, MDA-MB-231): 196.7 (41.5) | MitoSOX mean fluorescence (MDA-MB-231 [4]; 15 min, MDA-MB-231): 284.7 (103.2) | MitoSOX mean fluorescence (MDA-MB-231 [4]; 30 min, MDA-MB-231): 379.1 (76.9) | MitoSOX mean fluorescence (MDA-MB-231 [4]; 60 min, MDA-MB-231): 439.1 (83.0) | MitoSOX mean fluorescence (MDA-MB-231 [4]; 120 min, MDA-MB-231): 588.2 (14.11) | MitoSOX mean fluorescence (MDA-MB-231 [4]; 180 min, MDA-MB-231): 560.8 (27.5) | MitoSOX mean fluorescence (MDA-MB-231 [4]; 240 min, MDA-MB-231): 612.5 (37.5) | MitoSOX mean fluorescence (MCF7 [5]; 5 min, MCF7 (0 min = 100)): 176.5 (15.0) | MitoSOX mean fluorescence (MCF7 [5]; 10 min, MCF7): 177.6 (26.1) | MitoSOX mean fluorescence (MCF7 [5]; 15 min, MCF7): 191.6 (47.0) | MitoSOX mean fluorescence (MCF7 [5]; 30 min, MCF7): 230.8 (85.2) | MitoSOX mean fluorescence (MCF7 [5]; 60 min, MCF7): 235.9 (99.3) | MitoSOX mean fluorescence (MCF7 [5]; 120 min, MCF7): 171.1 (17.6) | MitoSOX mean fluorescence (MCF7 [5]; 180 min, MCF7): 165.4 (8.9) | MitoSOX mean fluorescence (MCF7 [5]; 240 min, MCF7): 207.7 (18.5)

From patent US20220251124A1, “3,5-BIS(PHENYL)-1H-HETEROARYL DERIVATIVES AS MEDICAMENTS” (INSTITUTE OF BIOTECHNOLOGY CAS, V.V.I., priority 2019, published 2022)
